# Target: T1, 11CBy receptors (Homo sapiens, UniProt Q99705)
# T1 construct: expressed in transfected cells; washed membranes
# Assay: Radioligand binding assay, [125I]-Melanin Concentrating Hormone competition on membranes from HEK293 cells stably expressing 11CBy receptors
# Conditions: [125I]-MCH 0.22 nM, 45 min at 37° C., pH 7.4, pKi calculated from IC50
# Description: The activity of the compounds used in this invention may be assessed by competitive binding assays to 11CBy receptors, as follows:
# Radioligand Binding Studies
# Radioligand binding assays were carried out on well washed membranes from HEK293 cells stably expressing 11CBy receptors. […] Non-specific binding was defined using 0.1 mM Melanin Concentrating Hormone (obtained from Bachem). The test compounds were added at concentrations between […] and 10 pM in 10 concentration steps. Following incubation, the reaction was stopped by filtration through GF/B filters and washed with 4×1 ml of ice-cold 50 mM Tris buffer. Microscint 20 (Packard) was added to the filters and the radioactivity measured using a Packard TopCount.
# Bound cpm in the presence of test compound was expressed as a fraction of the bound cpm in the absence of test compound and plotted against the concentration of compound. From this an IC50 was determined from which the pKi was calculated.
# T1 sequence (Q99705 whole entry): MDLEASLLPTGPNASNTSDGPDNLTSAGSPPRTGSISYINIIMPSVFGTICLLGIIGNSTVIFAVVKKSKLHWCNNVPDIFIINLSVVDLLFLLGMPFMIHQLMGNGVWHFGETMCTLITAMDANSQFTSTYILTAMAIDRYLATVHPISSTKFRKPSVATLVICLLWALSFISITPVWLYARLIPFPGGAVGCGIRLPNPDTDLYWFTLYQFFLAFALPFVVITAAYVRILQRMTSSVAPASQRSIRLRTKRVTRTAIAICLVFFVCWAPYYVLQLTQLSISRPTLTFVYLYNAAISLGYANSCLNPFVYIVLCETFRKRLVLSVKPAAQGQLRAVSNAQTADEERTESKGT
row,Compound,pKi range
1,Biphenyl-4-carboxylic acid [4-((R)-diethylamino-hydroxy-propoxy)-3-methoxy-phenyl]-amide [Example G1],7.1-7.4

# Same assay, conditions: [125I]-MCH 0.22 nM, 45 min at 37° C., pH 7.4, pKi calculated from IC50, read-out: pKi range (converted)
row,Compound,Ki
1,COc1cc(NC(=O)c2ccc(C3CCCCC3)cc2)ccc1OC[C@@H]1CCCN1C [Example A48],15.8 to 31.6 nM
2,COc1cc(NC(=O)c2ccc(-c3ccccc3)cc2Cl)ccc1OCCN(C(C)C)C(C)C [Example C8],39.8 to 79.4 nM
3,"CCN(CC)CCOc1ccc(N(C)C(=O)c2ccc(-c3ccccc3)cc2)cc1OC [Example E9, Biphenyl-4-carboxylic acid [4-(2-diethylamino-ethoxy)-3-methoxy-phenyl]-methyl-amide]",15.8 to 31.6 nM
4,COc1cc(NC(=O)c2ccc(-c3ccccc3)nc2)ccc1OCCN(C(C)C)C(C)C [Example F4],39.8 to 79.4 nM
5,"COc1cc(NC(=O)c2ccc(C3CCCCC3)cc2)ccc1N1CCN(C)CC1 [Example H1, 4-Cyclohexyl-N-[3-methoxy-4-(4-methyl-piperazin-1-yl)-phenyl]-benzamide]",39.8 to 79.4 nM

# Source: patent US20040063686A1, “Carboxamide compounds and their use as antagonists of a human 11cby receptor” (priority 2000, published 2004)
